Patent US10815275B2, “Antimicrobial peptoids with improved selectivity and use thereof” (priority 2018, dated 2020)
≈ marks a conversion by molar mass, not a printed value. Non-standard residues stand in square brackets, D forms with d. Residues, ends and D or L forms follow the SMILES beside them. Nspe = C[C@H](NCC(=O)O)c1ccccc1; Nlys = NCCCCNCC(=O)O

Tests used:
[1] = test system: E. coli strain ATCC25922; assay type: cell-based; conditions: strain ATCC25922
Method in brief: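 Broth microdilution in cation-adjusted Mueller Hinton Broth used 2×10^5 CFU/mL in medium with 0.2% BSA and 0.01% acetic acid. Peptoids were 2-fold serially diluted, and plates were incubated 18 hours at 37° C. with absorbance read at 600 nm. MIC was the lowest concentration completely suppressing growth, averaged over three independent experiments; MBC was also determined.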

[2] = test system: S. aureus strain KCTC1621; assay type: cell-based; conditions: strain KCTC1621
Method in brief: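 Broth microdilution used 2×10^5 CFU/mL in cation-adjusted Mueller Hinton broth containing 0.2% BSA and 0.01% acetic acid, with 2-fold serial peptoid dilutions and 18 h at 37 °C. Growth was read at A600. MIC was the lowest concentration fully suppressing growth, averaged over three independent experiments.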

[3] = test system: B. subtilis; assay type: cell-based; conditions: LB medium, 18 h
Method in brief: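 B. subtilis or E. coli DH5α grown 18 h at 37 °C in LB, diluted to 2×10^5 CFU/mL and exposed to 2-fold serial peptoid dilutions for 18 h at 37 °C. Growth read by A600; MIC taken as lowest concentration fully suppressing growth, averaged over three independent experiments.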

[4] = Metabolic stability in human liver S9 fraction, HPLC; assay type: in vitro ADME; conditions: 37° C., after 24 hours
Protocol: In order to identify metabolic stability of the peptoids synthesized in Preparation Example 1, such peptoids were subjected to enzymatic reaction using S9 fraction which is a mixture of human liver tissue-extracted metabolic enzymes. Thereafter, for the reaction products, metabolites were quantitated using HPLC.
Specifically, Peptoid NOS. 1 and 4, and Pexiganan as a peptide control (40 μL each, 100 μM) were treated with […], 3.3 mM MgCl2, and 1.3 mM NADPH buffer (306 μL, pH=7.4), to prepare respective samples. The respective samples were treated with S9 fraction (2 μL, 0.1 mg/mL) and then incubated at a temperature of 37° C. When 0, 1, 4, and 24 hours had elapsed after treatment with the S9 fraction, 40 μL of each sample was taken out, and acetonitrile containing the same amount of 0.1% trifluoroacetic acid was used to stop activity of enzymes contained in the S9 fraction. Thereafter, proteins precipitated with acetonitrile were centrifuged at a condition of 1,000×g for 10 minutes at a temperature of 4° C. Then, supernatant was analyzed by HPLC to identify an amount of the remaining peptoid which had not been degraded by the enzymes in the S9 fraction.

[5] = test system: red blood cells; test: Hemolytic activity on red blood cells; assay type: cell-based, mouse
Method in brief: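 Washed mouse red blood cells (10% v/v in PBS, pH 7.4) incubated with peptoids for 1 h at 37 °C; released haemoglobin read at 540 nm. % hemolysis normalised to 0.1% Triton X-100 (100%) and PBS blank; HD10, HD50 derived, Hmax taken at 200 μM top concentration.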

With `C[C@@H](c1ccccc1)N(CC(N)=O)C(=O)CN(C(=O)CN(CCCCN)C(=O)CN(C(=O)CN(C(=O)CN(CCCCN)C(=O)CN(C(=O)CN(C(=O)CN(CCCCN)C(=O)CN(C(=O)CN(C(=O)CNCCCCN)[C@@H](C)c1ccccc1)[C@@H](C)c1ccccc1)[C@@H](C)c1ccccc1)[C@@H](C)c1ccccc1)[C@@H](C)c1ccccc1)[C@@H](C)c1ccccc1)[C@@H](C)c1ccccc1` [compound 1] (H-[Nlys][Nspe][Nspe][Nlys][Nspe][Nspe][Nlys][Nspe][Nspe][Nlys][Nspe][Nspe]-NH2) the “MBC E. coli” value [1] was 3.1 µM (≈ 5.64 µg/mL), the “MBC S. aureus” value [2] was 1.6 µM (≈ 2.91 µg/mL) and the “MIC B. subtilis” value [3] was 0.8 µM (≈ 1.46 µg/mL). The “remaining amount after S9 fraction treatment” value ([4]; human liver S9 fraction, 1440 min) was “about 64%”, the remaining at 24 h, 11.5 μM ([4]; human, s9, pH 7.4, human liver S9 fraction, read-out: remaining amount after S9 fraction treatment) was ≥ 60% and the “Hmax (%)” value ([5]; Table 6, hemolysis rate at 200 μM) was 113.4 ± 2.0%. For the same compound, the HD10 ([5]; Table 6, peptoid concentration causing 10% hemolysis, highest concentration 200 μM, in µM (unit assumed)) was 1.2, the HD50 ([5]; Table 6, peptoid concentration causing 50% hemolysis, highest concentration 200 μM, in µM (unit assumed)) was 42.8 and the “Hmax (%)” value ([5]; Table 13, hemolysis rate at highest concentration 200 μM) was 100%.
